# Assay results: ChEMBL document CHEMBL1132475, “Synthesis and in vitro anti-HIV activity in human monocyte-derived macrophages of 2-oxothiazolidine-4(R)-carboxylic acid derivatives” (1999)
# Species on record: Homo sapiens
# Test: The compound was tested for antiviral activity against HIV-1/Ba-L-infected monocyte-derived macrophages in human at a concentration of 0.5 mM
# Assay type: functional
# Details: at 0.5 mM
row,SMILES,Untreated control [%]
1,O=C1N[C@H](C(=O)O)CS1 [PROCYSTEINE],81
2,O=C1N[C@H](C(=O)OCC(=O)c2ccccc2)CS1,69

# Species on record: Homo sapiens
# Test: The compound was tested for antiviral activity against HIV-1/Ba-L-infected monocyte-derived macrophages in human at a concentration of 2 mM
# Assay type: functional
# Details: not given
row,SMILES,Percent of untreated control
1,CCOC(=O)[C@@H]1CSC(=O)N1,86%
2,CC(C)(C)OC(=O)N[C@@H](CCC(=O)N1C(=O)SC[C@H]1C(=O)O)C(=O)OC(C)(C)C,102%
3,Cl.N[C@@H](CCC(=O)N1C(=O)SC[C@H]1C(=O)O)C(=O)O,83%
4,O=C1N[C@H](C(=O)O)CS1 [PROCYSTEINE],37
5,CCOC(=O)[C@@H]1CSC(=O)N1C(=O)CC[C@H](N)C(=O)O.Cl,37%
6,O=C(O)CNC(=O)[C@@H]1CSC(=O)N1,45%
7,CC(C)(C)OC(=O)CNC(=O)[C@@H]1CSC(=O)N1,104%
8,CC(=O)N[C@@H](CS)C(=O)O [ACETYLCYSTEINE],88%
9,CC(=O)N1C(=O)SC[C@H]1C(=O)O,34%
10,Cl.N[C@@H](CCC(=O)N1C(=O)SC[C@H]1C(=O)NCC(=O)O)C(=O)O,159%
